Laboratory results as given in PubChem BioAssay AID504313 (Emory University Molecular Libraries Screening Center, 2011).
Activity calls are given as the source filed them. The rule behind the calls is not given here.

Target: X-box-binding protein 1 (Homo sapiens) (UniProt P17861)
Experiment: XBP1 reporter suppression in cells – counter-screen, dose response (AID 504313);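 note: CHO cells carrying an XBP1 reporter stimulated with tunicamycin; potency is for inhibition of the tunicamycin-induced reporter signal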
Settings: XBP1 reporter cell assay, percent of control

Question: For `O=C(CSc1ncnc2[nH]ncc12)Nc1nc(-c2ccc(F)c(F)c2)cs1`, which IC50 is on record?
Answer: > 10 µM (inactive)

Question: For `Cn1c(=O)[nH]c(=O)c2[nH]c(N(Cc3ccccc3)Cc3ccccc3)nc21`, which IC50 is on record?
Answer: > 10 µM (inactive)

Question: For `CCCCS(=O)(=O)/C=C\C=C/S(=O)(=O)CCCC`, which IC50 is on record?
Answer: 2.68 µM

Question: For `O=C(Nc1cccc(F)c1)N(Cc1ccc(Cl)cc1)CC(O)C(F)(F)F` (configuration not stated), which IC50 is on record?
Answer: inactive

Question: How did the IC50 turn out when `C=C(C)COc1ccc(-c2n[nH]c(C)c2-c2ccccc2OC)c(O)c1` was run?
Answer: > 10 µM (inactive)

Question: `CC(C)Cn1c(N)c(C(=O)COC(=O)CC23CC4CC(CC(C4)C2)C3)c(=O)n(C)c1=O` was tested. Which IC50 did it give?
Answer: inactive

Question: Which IC50 does the source give for `Cc1nc(Nc2nc(CSc3nc4ccccc4[nH]3)cc(=O)[nH]2)nc2ccccc12` here?
Answer: > 10 µM (inactive)

Question: For `Nc1nnnn1/N=C/C(Br)=C/c1ccccc1`, which IC50 is on record?
Answer: > 10 µM (inactive)

Question: With `Cc1nc(SCC(=O)Nc2ccc(F)cc2)c(C#N)c(C)c1CC(=O)c1ccc(Br)cc1` as the molecule, how does the IC50 read?
Answer: > 10 µM (inactive)

Question: `CCN1CCN(Cc2ccc(NC(=O)c3ccc(C)c(NC(=O)c4c[nH]c5cc(C(F)(F)F)ccc5c4=O)c3)cc2C(F)(F)F)CC1` was tested. Which IC50 did it give?
Answer: < 0.16 µM

Question: With `COc1cc(-c2nc3ccc4ccccc4c3c3c2CCC3)cc(OC)c1O` as the molecule, how does the IC50 read?
Answer: inactive

Question: Which IC50 does the source give for `O=C(OCn1ncc(Cl)c(Cl)c1=O)c1ccc(F)cc1` here?
Answer: 3.7 µM

Question: With `COC(=O)c1c(NC(=O)Nc2ccc(Cl)cc2)sc(C)c1C` as the molecule, how does the IC50 read?
Answer: > 10 µM (inactive)

Question: `CCCCCCNC(=O)CC(c1ccccc1)c1cc(Br)ccc1O` (configuration not stated) was tested. Which IC50 did it give?
Answer: inactive

Question: With `Cc1ccc2[nH]c3c(c2c1)CN(C(=O)CN1CCN(c2cccc(C)c2C)CC1)CC3` as the molecule, how does the IC50 read?
Answer: > 10 µM (inactive)

Question: Which IC50 does the source give for `CC(C)C[C@H](NC(=O)c1[nH]cnc1C(=O)N[C@@H](C)C(=O)OC(C)(C)C)C(=O)OC(C)(C)C` here?
Answer: 2.71 µM

Question: With `CC(=O)OCC1O[C@@H](O[C@@H]2C[C@H]3C(C)(C)[C@H](OC(C)=O)CC[C@]3(C)[C@H]3CC[C@]45C[C@]4(CC[C@H]5[C@@H](C)C[C@@H](O)[C@H](O)C(C)(C)O)[C@@]32C)[C@H](O)[C@@H](O)[C@@H]1O` (some centres not stated) as the molecule, how does the IC50 read?
Answer: inactive

Question: With `CN1CCc2c(sc(NC(=O)c3cc4cc([N+](=O)[O-])ccc4s3)c2C(N)=O)C1` as the molecule, how does the IC50 read?
Answer: > 10 µM (inactive)

Question: With `Cc1ccc2[nH]c(O)c(N=NC(=O)CCc3ccccc3)c2c1Br` as the molecule, how does the IC50 read?
Answer: inactive

Question: For `Cc1ccccc1CS(=O)(=O)c1nnc([C@H](CC(C)C)NC(=O)OC(C)(C)C)o1`, which IC50 is on record?
Answer: inactive

Question: `C=C1C(=O)O[C@@H]2C[C@@H](C)[C@@H]3C=CC(=O)[C@@]3(C)[C@@H](O)[C@H]12` was tested. Which IC50 did it give?
Answer: 2.43 µM

Question: With `O=C(/C=C/c1cccc(C(F)(F)F)c1)Nc1cccc(C(F)(F)F)c1` as the molecule, how does the IC50 read?
Answer: inactive

Question: For `CCOc1ccc2nc(NC(=O)CSc3nnnn3C3CCCCC3)sc2c1`, which IC50 is on record?
Answer: > 10 µM (inactive)

Question: With `O=C1C=CC(O)(c2cc(=O)c3c(O)cc(O)cc3o2)C=C1` as the molecule, how does the IC50 read?
Answer: 3.84 µM

Question: With `O=C(OCn1ncc(Cl)c(Cl)c1=O)c1cccc(C(F)(F)F)c1` as the molecule, how does the IC50 read?
Answer: inactive

Question: `Cc1nc(COC(=O)c2cc(O)c3ccccc3c2O)cs1` was tested. Which IC50 did it give?
Answer: > 10 µM (inactive)

Question: For `O=C(NC(Nc1nc2ccc([N+](=O)[O-])cc2s1)(C(F)(F)F)C(F)(F)F)c1ccccc1Cl`, which IC50 is on record?
Answer: 0.34 µM

Question: With `CCN1/C(=C/c2ccc3cc(C)ccc3[n+]2C)Sc2ccc3sccc3c21` as the molecule, how does the IC50 read?
Answer: 2.28 µM

Question: Which IC50 does the source give for `CC(=O)C1=C(c2ccc(Br)cc2)C(=O)c2ccccc2C1=O` here?
Answer: 0.99 µM

Question: How did the IC50 turn out when `O=C1NC[C@@H](Cc2cccc3ccccc23)N(CCc2cc(C(F)(F)F)cc(C(F)(F)F)c2)C1=O` was run?
Answer: inactive

Question: How did the IC50 turn out when `COc1ccccc1NCC(O)COc1ccc(C(C)(C)C)cc1` (configuration not stated) was run?
Answer: inactive

Question: Which IC50 does the source give for `O=C(NC(c1ccccc1)c1cc(Cl)c2cccnc2c1O)c1cccnc1` (configuration not stated) here?
Answer: inactive

Question: Which IC50 does the source give for `Nc1c(S(=O)(=O)c2cccc(Cl)c2)c2nc3ccccc3nc2n1/N=C/c1ccc(O)c(O)c1` here?
Answer: > 10 µM (inactive)

Question: For `O=C(c1ccc(Cl)cc1)N1CCC(O)(CSc2ccc(Cl)cc2Cl)CC1`, which IC50 is on record?
Answer: > 10 µM (inactive)

Question: With `Nc1c(C(=O)Nc2nc3ccccc3s2)sc2nc(-c3cccs3)ccc12` as the molecule, how does the IC50 read?
Answer: inactive

Question: `COc1ccc(Cn2c(C)c(C)c(C#N)c2NC(=O)Nc2ccc(Cl)cc2)cc1` was tested. Which IC50 did it give?
Answer: > 10 µM (inactive)

Question: For `O=C(On1c(-c2ccccc2)nc2ccccc2c1=O)c1ccco1`, which IC50 is on record?
Answer: > 10 µM (inactive)
